Legend:
Conditions in all cases: method of the corresponding examples
[1] = antibacterial activity of optically active cyclopentenones; type: cell-based
HL-60 cells [2] = assay: apoptosis-inducing activity to HL-60 cells; type: cell-based, human
Method: (2) The cyclopentenone prepared in Example 2-(1) was used for preparing aqueous solutions of the cyclopentenone in the concentrations of 2.86 mM, 955 μM, 318 μM, 106 μM, 35 μM, 12 μM and […]. Then said heat-treated substance was adjusted to pH 7.0 with NaOH and the apoptosis-inducing activity to HL-60 cells was measured as follows.
To 1.35 ml of this suspension was added 0.15 ml of the above-mentioned cyclopentenone solution and the mixture was incubated at […] for 20 hours in the presence of 5% of carbon dioxide gas.

[3] = test system: human promyelocytic leukemia cells HL-60; assay: MTT cell growth inhibition, optically active cyclopentenones; type: cell-based
Method: An ethanolic solution (1 mg/ml) of each of the (-)- and (+) -cyclopentenoneobtained in Example 16 was diluted with a 75% aqueous ethanol solution to an extent of 2, 4, 8, 16, 32, 64, 128, 256, 512, 1024 and 2048-fold and each 5 μl of them was charged in each of the wells of a 96-well microtiter plate followed by drying with air. An RPMI 1640 medium (100 μl) containing 10% fetal bovine serum containing 5000 human promyelocytic leukemia cells HL-60 (ATCC CCL-240) was added to each well and incubated at 37° C. for 48 hours in the presence of 5% of carbon dioxide gas. After observing the morphology of the cells under an optical microscope, 10 μl of phosphate buffered saline containing 5 mg/ml of 3-(4,5-dimethylthiazol-2-yl)-2,5-diphenyltetrazolium bromide (MTT; manufactured by Sigma) thereto, an incubation was conducted for additional four hours and the growth state of the cells was observed under a microscope. Further, 100 μl of 2-propanol containing 0.04N HCl was added thereto followed by well stirring and an absorbance at 590 nm was measured and defined as the degree of cell growth.

HL-60 cells [4] = assay: cancer cell differentiation (Wright-Giemsa stain); type: cell-based, human
Method: (2) To HL-60 cells was added 10^-4 μg/ml of the cyclopentenone and an incubation by the same manner as in Example 15-(1) was conducted for three days. […] The result was that the differentiated cells were around 10% in the control where no cyclopentenone was added while, in the fractions to which the cyclopentenone was added, 50% or more cells were differentiated to monocyte- or to macrophage-like cells.
The result was that the differentiated cells were around 10% in the control where no cyclopentenone was added while, in the fraction to which 0.005 μg/ml of the cyclopentenone was added, 25% or more cells were differentiated to mature bone marrow cells.

| SMILES | antibacterial activity [1] | apoptosis inducing activity (HL-60 cells [2]) | cell growth inhibition [3] | cancer cell differentiation inducing activity (HL-60 cells [4]) |
| --- | --- | --- | --- | --- |
| O=C1C=C[C@@H](O)[C@@H]1O (single isomer, unassigned) [(-)-trans-cyclopentenone, (-)-trans-4,5-dihydroxy-2-cyclopenten-1-one] | antibacterial activity | apoptosis inducing activity | cell growth inhibiting activity | cancer cell differentiation inducing activity |
| O=C1C=CC(O)C1O (single isomer, unassigned; (+)) [(+)-cis-cyclopentenone] | antibacterial activity | apoptosis inducing activity | cell growth inhibiting activity | cancer cell differentiation inducing activity |
| O=C1C=C[C@@H](O)[C@@H]1O (single isomer, unassigned) [(+)-trans-cyclopentenone, (+)-trans-4,5-dihydroxy-2-cyclopenten-1-one] | antibacterial activity | apoptosis inducing activity | cell growth inhibiting activity | cancer cell differentiation inducing activity |
| O=C1C=CC(O)C1O (single isomer, unassigned; (-)) [(-)-cis-cyclopentenone] | antibacterial activity | apoptosis inducing activity | cell growth inhibiting activity | cancer cell differentiation inducing activity |

— patent US6087401A, “Cyclopentenones, process for preparing the same, and the use thereof” (Takara Shuzo Co., Ltd., priority 1996, dated 2000)
